Counter-ions that a name gives are not always drawn.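 These data come from cells grown in 96-well plates and exposed to compound for 48 hours at five concentrations. Abbreviation: GI50, concentration required for 50% inhibition of growth.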 Active and inactive are the calls of the source. Rule as the data show it: active = GI50 up to about 1.1 µM and inactive = higher.
Columns and labels:
Assay in all cases: NCI anticancer screen, dose series, 48 h
OVCAR-5 = test system: OVCAR-5
Malme-3M = test system: Malme-3M
HOP-62 = test system: HOP-62
OVCAR-4 = test system: OVCAR-4
SF-539 = test system: SF-539
Hs-578T = test system: Hs-578T
ACHN = test system: ACHN
HOP-92 = test system: HOP-92
RPMI-8226 = test system: RPMI-8226
HCC 2998 = test system: HCC 2998
PC-3 = test system: PC-3
SNB-75 = test system: SNB-75
UO-31 = test system: UO-31
HCT-15 = test system: HCT-15
OVCAR-8 = test system: OVCAR-8
OVCAR-3 = test system: OVCAR-3
SNB-19 = test system: SNB-19
MDA-MB-435 = test system: MDA-MB-435
HCT-116 = test system: HCT-116
A498 = test system: A498

Row | Compound | GI50 (OVCAR-5) | GI50 (Malme-3M) | GI50 (HOP-62) | GI50 (OVCAR-4) | GI50 (SF-539) | GI50 (Hs-578T) | GI50 (ACHN) | GI50 (HOP-92) | GI50 (RPMI-8226) | GI50 (HCC 2998) | GI50 (PC-3) | GI50 (SNB-75) | GI50 (UO-31) | GI50 (HCT-15) [µM] | GI50 (OVCAR-8) | GI50 (OVCAR-3) | GI50 (SNB-19) | GI50 (MDA-MB-435) | GI50 (HCT-116) | GI50 (A498)
1 | Cn1c2c(c3ccccc31)CC1c3c(c4ccccc4n3C)CC21 (configuration not stated) | > 100 µM (inactive) | > 100 µM (inactive) | > 100 µM (inactive) | > 100 µM (inactive) | > 100 µM (inactive) | > 100 µM (inactive) | > 100 µM (inactive) | > 100 µM (inactive) | > 100 µM (inactive) | > 100 µM (inactive) | > 100 µM (inactive) | > 100 µM (inactive) | > 100 µM (inactive) | > 100 | > 100 µM (inactive) | > 100 µM (inactive) | > 100 µM (inactive) | > 100 µM (inactive) |  | 
2 | CCc1nnc(S)n1/N=C\c1ccc(-c2ccccc2[N+](=O)[O-])o1 | 50.7 µM (inactive) | 85.5 µM (inactive) | 56.5 µM (inactive) | 44.8 µM (inactive) | 29.8 µM (inactive) | 37.4 µM (inactive) | 52.5 µM (inactive) | 49.3 µM (inactive) | 13.2 µM (inactive) |  | 41.5 µM (inactive) | 32.1 µM (inactive) | 41.5 µM (inactive) | 30.3 | 33.1 µM (inactive) | 18.2 µM (inactive) | > 100 µM (inactive) | 15.4 µM (inactive) | 32.3 µM (inactive) | 49.4 µM (inactive)
3 | CC(C)Cn1cnc2c(SCc3ccccn3)nc(N)nc21 | > 100 µM (inactive) | > 100 µM (inactive) | > 100 µM (inactive) | > 100 µM (inactive) |  | > 100 µM (inactive) | > 100 µM (inactive) | > 100 µM (inactive) | > 100 µM (inactive) | > 100 µM (inactive) | > 100 µM (inactive) | 51.9 µM (inactive) | > 100 µM (inactive) | > 100 | > 100 µM (inactive) | > 100 µM (inactive) | > 100 µM (inactive) | > 100 µM (inactive) | > 100 µM (inactive) | > 100 µM (inactive)
4 | CC(=O)O[C@@]12[C@@H]3O[C@@]4(O)C[C@]5(C)[C@H]6C[C@@](C(C)C)(O[C@H]5c5ccoc5)O[C@H]1[C@]6(C4)O[C@]2(O)C(C)=CC3(C)C | > 100 µM (inactive) | > 100 µM (inactive) | > 100 µM (inactive) | > 100 µM (inactive) | > 100 µM (inactive) | > 100 µM (inactive) | > 100 µM (inactive) | > 100 µM (inactive) | > 100 µM (inactive) | > 100 µM (inactive) | > 100 µM (inactive) | 75.9 µM (inactive) | > 100 µM (inactive) | > 100 | > 100 µM (inactive) | > 100 µM (inactive) | 63.2 µM (inactive) | > 100 µM (inactive) | > 100 µM (inactive) | 
5 | CN(C(=O)[C@H](NC(=O)OCc1ccccc1)c1ccccc1)C1CCCCC1N1CCCC1 (some centres not stated) | > 100 µM (inactive) | 48.4 µM (inactive) | > 100 µM (inactive) | 51.4 µM (inactive) |  | 19.6 µM (inactive) | > 100 µM (inactive) | 31.5 µM (inactive) | 36.3 µM (inactive) |  | 69.7 µM (inactive) | 97.3 µM (inactive) | 48.5 µM (inactive) | > 100 | > 100 µM (inactive) | > 100 µM (inactive) | > 100 µM (inactive) | 70.8 µM (inactive) | 69.2 µM (inactive) | 89.9 µM (inactive)
6 | O=C(OCCN1CCCCCC1)C(c1ccsc1)C1CCCCC1 (configuration not stated) [CETIEDIL CITRATE] | 17.3 µM (inactive) | 14.4 µM (inactive) | 15.1 µM (inactive) |  | 16.8 µM (inactive) | 20.7 µM (inactive) | 17.1 µM (inactive) | 13.9 µM (inactive) | 13.5 µM (inactive) | 15.2 µM (inactive) | 18.4 µM (inactive) | 16.1 µM (inactive) | 13.3 µM (inactive) | 14.4 | 18.6 µM (inactive) | 15 µM (inactive) | 18.7 µM (inactive) | 16.9 µM (inactive) | 14.1 µM (inactive) | 
7 | COC(=O)C(Cc1ccccc1)OC(=O)C(N)CC(=O)O (configuration not stated) | > 100 µM (inactive) | > 100 µM (inactive) | > 100 µM (inactive) |  | > 100 µM (inactive) | > 100 µM (inactive) | > 100 µM (inactive) | > 100 µM (inactive) | > 100 µM (inactive) | > 100 µM (inactive) | > 100 µM (inactive) | < 0.01 µM (active) | > 100 µM (inactive) | > 100 | > 100 µM (inactive) | > 100 µM (inactive) | > 100 µM (inactive) | 17.1 µM (inactive) | > 100 µM (inactive) | 
8 | COc1cc(C(c2ccc3c(c2)OCO3)C2SCCCS2)cc(OC)c1OC (configuration not stated) | 4.81 µM (inactive) | 3.36 µM (inactive) | 3.03 µM (inactive) | 6.65 µM (inactive) |  | 2.33 µM (inactive) | 5.52 µM (inactive) |  | 3.27 µM (inactive) | 2.99 µM (inactive) | 3.6 µM (inactive) | 2.21 µM (inactive) | 6.22 µM (inactive) | 2.02 | 4.71 µM (inactive) | 3.14 µM (inactive) | 1.86 µM (inactive) | 0.661 µM (active) | 2.59 µM (inactive) | 1.9 µM (inactive)
9 | CC(=O)Oc1ccc2c3c1O[C@H]1[C@H](O)CC[C@@]4(O)[C@@H](C2)N(C)CC[C@]314 | > 100 µM (inactive) | > 100 µM (inactive) | > 100 µM (inactive) | > 100 µM (inactive) | > 100 µM (inactive) | > 100 µM (inactive) | > 100 µM (inactive) | > 100 µM (inactive) | > 100 µM (inactive) |  | > 100 µM (inactive) |  | > 100 µM (inactive) | > 100 | > 100 µM (inactive) | > 100 µM (inactive) | > 100 µM (inactive) | > 100 µM (inactive) | > 100 µM (inactive) | > 100 µM (inactive)
10 | O=C1/C(=C/c2cccc([N+](=O)[O-])c2)N=C(c2ccccc2)N1c1ccc2c(c1)Sc1cc(N3C(=O)/C(=C/c4cccc([N+](=O)[O-])c4)N=C3c3ccccc3)ccc1N2 | 18.5 µM (inactive) | 21.4 µM (inactive) | 20 µM (inactive) | 18.7 µM (inactive) |  | 30.2 µM (inactive) | 30.9 µM (inactive) | 28.1 µM (inactive) | 26.7 µM (inactive) | > 100 µM (inactive) | 22 µM (inactive) | 16.7 µM (inactive) | 53.3 µM (inactive) | > 100 | 29.2 µM (inactive) | 12.6 µM (inactive) | 21.2 µM (inactive) | 18.7 µM (inactive) | 42.8 µM (inactive) | 23.6 µM (inactive)
11 | O=C(O)C1C2CC3C(OC(=O)C31)C2Br (configuration not stated) | > 100 µM (inactive) | > 100 µM (inactive) | > 100 µM (inactive) | > 100 µM (inactive) | > 100 µM (inactive) | > 100 µM (inactive) | > 100 µM (inactive) | > 100 µM (inactive) | > 100 µM (inactive) |  | > 100 µM (inactive) | > 100 µM (inactive) | > 100 µM (inactive) | > 100 | > 100 µM (inactive) | > 100 µM (inactive) | > 100 µM (inactive) | > 100 µM (inactive) | > 100 µM (inactive) | > 100 µM (inactive)
12 | Cc1c(C)c(S(=O)(=O)N(CCCCCON)OCCCN)c(C)c2c1OC(C)(C)CC2 | 14.9 µM (inactive) | 14.3 µM (inactive) | 16 µM (inactive) | 7.5 µM (inactive) | 15.2 µM (inactive) | 19.3 µM (inactive) | 16.4 µM (inactive) | 10.3 µM (inactive) | 9.29 µM (inactive) |  | 13.2 µM (inactive) | 14.3 µM (inactive) | 16.6 µM (inactive) | 15.2 | 11 µM (inactive) | 14.5 µM (inactive) | 15.5 µM (inactive) | 11.8 µM (inactive) | 14.8 µM (inactive) | 14.6 µM (inactive)
13 | Cc1c2cccc-2c(OCCOC(=O)n2ccnc2)cc2c1[nH]c1ccccc12 | 2.55 µM (inactive) | 2.79 µM (inactive) | 5.48 µM (inactive) | 2.32 µM (inactive) |  | 3.55 µM (inactive) | 2.56 µM (inactive) | 1.7 µM (inactive) | 3.48 µM (inactive) | 2.82 µM (inactive) | 1.75 µM (inactive) | 1.04 µM (active) | 1.84 µM (inactive) | 2.2 | 2.18 µM (inactive) | 1.89 µM (inactive) | 2.65 µM (inactive) | 3.12 µM (inactive) | 3.33 µM (inactive) | 6.52 µM (inactive)
14 | OCC1OC(n2cnc3c(/C=C(/O)c4ccccc4)ncnc32)C(O)C1O (configuration not stated) | 3.98 µM (inactive) | 5.33 µM (inactive) | 5.21 µM (inactive) | 2.84 µM (inactive) | 4.93 µM (inactive) | 14.4 µM (inactive) | 0.923 µM (active) | > 25.1 µM (inactive) | 1.38 µM (inactive) |  | 4.04 µM (inactive) | 0.7 µM (active) | 0.92 µM (active) | 1.05 | 2.17 µM (inactive) | 2.77 µM (inactive) | 12.4 µM (inactive) | 2.25 µM (inactive) | 1.55 µM (inactive) | 2.16 µM (inactive)
15 | CN(Cc1cnc2nc(N)nc(N)c2n1)c1ccc(C(=O)NC(CO)CCCO)cc1 (configuration not stated) | > 100 µM (inactive) | > 100 µM (inactive) | > 100 µM (inactive) |  | > 100 µM (inactive) | > 100 µM (inactive) | > 100 µM (inactive) |  | > 100 µM (inactive) |  | > 100 µM (inactive) | > 100 µM (inactive) | > 100 µM (inactive) | > 100 | > 100 µM (inactive) | > 100 µM (inactive) | > 100 µM (inactive) | > 100 µM (inactive) | > 100 µM (inactive) | > 100 µM (inactive)

Source: ChEMBL document CHEMBL1201862, “PubChem BioAssay data set” (2004)
